Common to all, as to assay: relative viability (nuclei count vs DMSO), 5 days (fraction); higher = more cells survive
Compound in the assay “XMD14-99 + Vorinostat”: CN1CCN(CC1)C2=CC(=C(C=C2)NC3=NC(=C(S3)C(=O)C4=C(C=CC=C4Cl)Cl)N)OC [XMD14-99] + O=C(CCCCCCC(=O)Nc1ccccc1)NO [Vorinostat] (partner 1 µM)
A digest of the protocol: (§1)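 Lung cancer cell lines, seeded in 1536-well plates, were treated the following day by pin tool with a single drug or with five library-drug doses (not always all listed) in √10 steps on top of a fixed anchor-drug dose. Cells were fixed and nuclei stained in one step after 5 days, and nuclei were counted. Relative viability is the nuclei count for treated wells divided by that for vehicle wells, reported as medians of duplicate plates.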

Compound in the assay “AZD1208 + Decitabine”: N[C@@H]1CCCN(c2c(/C=C3\SC(=O)NC3=O)cccc2-c2ccccc2)C1 [AZD1208] + Nc1ncn([C@H]2C[C@H](O)[C@@H](CO)O2)c(=O)n1 [Decitabine] (partner 2 µM)
A digest of the protocol: as §1

Compound in the assay “XMD14-99 + Bortezomib”: CN1CCN(CC1)C2=CC(=C(C=C2)NC3=NC(=C(S3)C(=O)C4=C(C=CC=C4Cl)Cl)N)OC [XMD14-99] + CC(C)C[C@H](NC(=O)[C@H](Cc1ccccc1)NC(=O)c1cnccn1)B(O)O [Bortezomib] (partner 0.002 µM)
A digest of the protocol:
as §1

Compound in the assay “AZD1208 + OSI-027”: N[C@@H]1CCCN(c2c(/C=C3\SC(=O)NC3=O)cccc2-c2ccccc2)C1 [AZD1208] + COc1cccc2cc(-c3nc([C@H]4CC[C@H](C(=O)O)CC4)n4ncnc(N)c34)[nH]c12 [OSI-027] (partner 0.5 µM)
A digest of the protocol:
as §1

UMC-11: the relative viability was determined as 0.422 in the assay with XMD14-99 + Vorinostat (first compound 0.08 µM); 0.352 with XMD14-99 + Vorinostat (first compound 0.8 µM); 0.416 in the assay with XMD14-99 + Vorinostat (first compound 2.53 µM); 0.346 with XMD14-99 + Vorinostat (first compound 8 µM); 0.478 with AZD1208 + Decitabine (first compound 0.08 µM); 0.513 with AZD1208 + Decitabine (first compound 0.253 µM). In addition, the relative viability with AZD1208 + Decitabine (first compound 0.8 µM) was 0.49; in the assay with AZD1208 + Decitabine (first compound 2.53 µM), 0.515; with AZD1208 + Decitabine (first compound 8 µM), 0.383; with XMD14-99 + Bortezomib (first compound 0.08 µM), 0.701; in the assay with XMD14-99 + Bortezomib (first compound 0.8 µM) it was 0.775; with XMD14-99 + Bortezomib (first compound 2.53 µM), 0.673. For the same cell line, the relative viability was 0.526 with XMD14-99 + Bortezomib (first compound 8 µM); 0.333 with AZD1208 + OSI-027 (first compound 0.08 µM); 0.321 in the assay with AZD1208 + OSI-027 (first compound 0.253 µM); 0.321 with AZD1208 + OSI-027 (first compound 0.8 µM); 0.329 with AZD1208 + OSI-027 (first compound 2.53 µM); 0.294 with AZD1208 + OSI-027 (first compound 8 µM).

Values taken from the supplement of paper PMC10307832.
